{"source": "patent US20100041089A1", "about": "“IMPROVED METHOD FOR DETECTING CHEMICAL […]” (priority 2006, published 2010)", "test_system": "yeast genes (expressed mRNA)", "assay": "DNA chip measurement of expressed mRNA of yeast genes after culture with a toxic chemical substance", "type": "cell-based, Saccharomyces cerevisiae S288C", "in_short": "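Each expression value is the mRNA level in chemical-treated yeast divided by that in untreated yeast, from Cy3/Cy5 fluorescence on a whole-genome chip. Log-phase S288C cells in YPD at 25° C had received a sublethal, growth-inhibiting dose for two hours. Intensity denotes control expression relative to the all-gene mean.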", "data": [{"smiles": "COc1cc(CNC(=O)CCCCC=CC(C)C)ccc1O", "note": "[(12), 8-Methyl-N-vanillyl-6-nonenamide]", "values": [{"measurement": "The level of expressed mRNA in the presence of chemical substance/The level of expressed mRNA in the absence of chemical substance", "setting": "yeast gene YNL092W, cultured two hours with substance", "value": 1.1}, {"measurement": "The level of expressed mRNA in the presence of chemical substance/The level of expressed mRNA in the absence of chemical substance", "setting": "yeast gene YNL104C, metabolism protein genes", "value": 1.1}, {"measurement": "The level of expressed mRNA in the presence of chemical substance/The level of expressed mRNA in the absence of chemical substance", "setting": "yeast gene YNL115C, cultured two hours with substance", "value": 0.8}, {"measurement": "The level of expressed mRNA in the presence of chemical substance/The level of expressed mRNA in the absence of chemical substance", "setting": "yeast gene YNL156C, cultured two hours with substance", "value": 0.9}, {"measurement": "The level of expressed mRNA in the presence of chemical substance/The level of expressed mRNA in the absence of chemical substance", "setting": "yeast gene YNL169C", "value": 1.0}, {"measurement": "The level of expressed mRNA in the presence of chemical substance/The level of expressed mRNA in the absence of chemical substance", "setting": "yeast gene YNL190W, cultured two hours with substance", "value": 1.0}, {"measurement": "The level of expressed mRNA in the presence of chemical substance/The level of expressed mRNA in the absence of chemical substance", "setting": "yeast gene YNL208W, cultured two hours with substance", "value": 0.8}, {"measurement": "The level of expressed mRNA in the presence of chemical substance/The level of expressed mRNA in the absence of chemical substance", "setting": "yeast gene YNL211C, cultured two hours with substance", "value": 3.2}, {"measurement": "The level of expressed mRNA in the presence of chemical substance/The level of expressed mRNA in the absence of chemical substance", "setting": "yeast gene YNL234W, cultured two hours with substance", "value": 1.1}, {"measurement": "The level of expressed mRNA in the presence of chemical substance/The level of expressed mRNA in the absence of chemical substance", "setting": "yeast gene YNL241C (stress protein genes)", "value": 2.0}, {"measurement": "The level of expressed mRNA in the presence of chemical substance/The level of expressed mRNA in the absence of chemical substance", "setting": "yeast gene YNL281W, cultured two hours with substance", "value": 0.7}, {"measurement": "The level of expressed mRNA in the presence of chemical substance/The level of expressed mRNA in the absence of chemical substance", "setting": "yeast gene YNL300W, cultured two hours with substance", "value": 0.8}, {"measurement": "The level of expressed mRNA in the presence of chemical substance/The level of expressed mRNA in the absence of chemical substance", "setting": "yeast gene YNL305C, cultured two hours with substance", "value": 1.1}, {"measurement": "The level of expressed mRNA in the presence of chemical substance/The level of expressed mRNA in the absence of chemical substance", "setting": "yeast gene YNL331C", "value": 0.9}, {"measurement": "The level of expressed mRNA in the presence of chemical substance/The level of expressed mRNA in the absence of chemical substance", "setting": "yeast gene YNR033W, metabolism protein genes", "value": 1.1}, {"measurement": "The level of expressed mRNA in the presence of chemical substance/The level of expressed mRNA in the absence of chemical substance", "setting": "yeast gene YNR064C, cultured two hours with substance", "value": 0.7}, {"measurement": "The level of expressed mRNA in the presence of chemical substance/The level of expressed mRNA in the absence of chemical substance", "setting": "yeast gene YNR068C, cultured two hours with substance", "value": 1.3}, {"measurement": "The level of expressed mRNA in the presence of chemical substance/The level of expressed mRNA in the absence of chemical substance", "setting": "yeast gene YOL031C, cultured two hours with substance", "value": 2.1}, {"measurement": "The level of expressed mRNA in the presence of chemical substance/The level of expressed mRNA in the absence of chemical substance", "setting": "yeast gene YOL032W, cultured two hours with substance", "value": 1.0}, {"measurement": "The level of expressed mRNA in the presence of chemical substance/The level of expressed mRNA in the absence of chemical substance", "setting": "yeast gene YOL036W, cultured two hours with substance", "value": 1.0}, {"measurement": "The level of expressed mRNA in the presence of chemical substance/The level of expressed mRNA in the absence of chemical substance", "setting": "yeast gene YOL047C, cultured two hours with substance", "value": 0.8}, {"measurement": "The level of expressed mRNA in the presence of chemical substance/The level of expressed mRNA in the absence of chemical substance", "setting": "yeast gene YOL058W", "value": 1.3}, {"measurement": "The level of expressed mRNA in the presence of chemical substance/The level of expressed mRNA in the absence of chemical substance", "setting": "yeast gene YOL064C (stress protein genes)", "value": 0.9}, {"measurement": "The level of expressed mRNA in the presence of chemical substance/The level of expressed mRNA in the absence of chemical substance", "setting": "yeast gene YOL071W, cultured two hours with substance", "value": 1.0}, {"measurement": "The level of expressed mRNA in the presence of chemical substance/The level of expressed mRNA in the absence of chemical substance", "setting": "yeast gene YOL082W, cultured two hours with substance", "value": 1.0}, {"measurement": "The level of expressed mRNA in the presence of chemical substance/The level of expressed mRNA in the absence of chemical substance", "setting": "yeast gene YOL083W, cultured two hours with substance", "value": 1.2}, {"measurement": "The level of expressed mRNA in the presence of chemical substance/The level of expressed mRNA in the absence of chemical substance", "setting": "yeast gene YOL117W, cultured two hours with substance", "value": 0.9}, {"measurement": "The level of expressed mRNA in the presence of chemical substance/The level of expressed mRNA in the absence of chemical substance", "setting": "yeast gene YOL126C, metabolism protein genes", "value": 1.1}, {"measurement": "The level of expressed mRNA in the presence of chemical substance/The level of expressed mRNA in the absence of chemical substance", "setting": "yeast gene YOL131W, cultured two hours with substance", "value": 0.9}, {"measurement": "The level of expressed mRNA in the presence of chemical substance/The level of expressed mRNA in the absence of chemical substance", "setting": "yeast gene YOL150C, cultured two hours with substance", "value": 2.9}, {"measurement": "The level of expressed mRNA in the presence of chemical substance/The level of expressed mRNA in the absence of chemical substance", "setting": "yeast gene YOL162W, cultured two hours with substance", "value": 1.4}, {"measurement": "The level of expressed mRNA in the presence of chemical substance/The level of expressed mRNA in the absence of chemical substance", "setting": "yeast gene YOR019W, cultured two hours with substance", "value": 1.0}, {"measurement": "The level of expressed mRNA in the presence of chemical substance/The level of expressed mRNA in the absence of chemical substance", "setting": "yeast gene YOR049C, cultured two hours with substance", "value": 6.7}, {"measurement": "The level of expressed mRNA in the presence of chemical substance/The level of expressed mRNA in the absence of chemical substance", "setting": "yeast gene YOR099W, metabolism protein genes", "value": 1.1}, {"measurement": "The level of expressed mRNA in the presence of chemical substance/The level of expressed mRNA in the absence of chemical substance", "setting": "yeast gene YOR130C, metabolism protein genes", "value": 0.9}, {"measurement": "The level of expressed mRNA in the presence of chemical substance/The level of expressed mRNA in the absence of chemical substance", "setting": "yeast gene YOR197W, cultured two hours with substance", "value": 1.0}, {"measurement": "The level of expressed mRNA in the presence of chemical substance/The level of expressed mRNA in the absence of chemical substance", "setting": "yeast gene YOR248W, cultured two hours with substance", "value": 0.5}, {"measurement": "The level of expressed mRNA in the presence of chemical substance/The level of expressed mRNA in the absence of chemical substance", "setting": "yeast gene YOR336W, metabolism protein genes", "value": 1.0}, {"measurement": "The level of expressed mRNA in the presence of chemical substance/The level of expressed mRNA in the absence of chemical substance", "setting": "yeast gene YOR382W, cultured two hours with substance", "value": 2.8}, {"measurement": "The level of expressed mRNA in the presence of chemical substance/The level of expressed mRNA in the absence of chemical substance", "setting": "yeast gene YPL017C, metabolism protein genes", "value": 1.0}, {"measurement": "The level of expressed mRNA in the presence of chemical substance/The level of expressed mRNA in the absence of chemical substance", "setting": "yeast gene YPL052W, cultured two hours with substance", "value": 1.1}, {"measurement": "The level of expressed mRNA in the presence of chemical substance/The level of expressed mRNA in the absence of chemical substance", "setting": "yeast gene YPL087W, cultured two hours with substance", "value": 1.8}, {"measurement": "The level of expressed mRNA in the presence of chemical substance/The level of expressed mRNA in the absence of chemical substance", "setting": "yeast gene YPL194W (stress protein genes)", "value": 0.9}, {"measurement": "The level of expressed mRNA in the presence of chemical substance/The level of expressed mRNA in the absence of chemical substance", "setting": "yeast gene YPL196W, cultured two hours with substance", "value": 0.9}, {"measurement": "The level of expressed mRNA in the presence of chemical substance/The level of expressed mRNA in the absence of chemical substance", "setting": "yeast gene YPL206C, cultured two hours with substance", "value": 0.8}, {"measurement": "The level of expressed mRNA in the presence of chemical substance/The level of expressed mRNA in the absence of chemical substance", "setting": "yeast gene YPL222W, cultured two hours with substance", "value": 1.3}, {"measurement": "The level of expressed mRNA in the presence of chemical substance/The level of expressed mRNA in the absence of chemical substance", "setting": "yeast gene YPR023C, cultured two hours with substance", "value": 0.9}, {"measurement": "The level of expressed mRNA in the presence of chemical substance/The level of expressed mRNA in the absence of chemical substance", "setting": "yeast gene YPR079W, cultured two hours with substance", "value": 1.0}, {"measurement": "The level of expressed mRNA in the presence of chemical substance/The level of expressed mRNA in the absence of chemical substance", "setting": "yeast gene YPR151C, cultured two hours with substance", "value": 0.9}, {"measurement": "The level of expressed mRNA in the presence of chemical substance/The level of expressed mRNA in the absence of chemical substance", "setting": "yeast gene YPR167C", "value": 1.3}]}]}
